Data from PMC8465315, “Molecular Umbrella as a Nanocarrier for Antifungals” (Molecules, 2021).
Values after ≈ are worked out from the molar mass of the structure shown. “Also recorded” adds a separate entry of the source. Like-named read-outs stand apart in the source and are kept apart here.

Assays:
Candida spp. = assay: Antifungal in vitro activity, summary statements over the Candida strains tested; assay type: cell-based
Description: (§1) The antifungal in vitro activity of conjugates 24a–d and 35 was determined by the serial two-fold dilution method, using the 96-well microtiter plates, in two growth media, RPMI-1640 and YNB-AS, against seven yeast species from the Candida genus. The MIC50 and MIC90 values, i.e., concentrations at which cell growth was inhibited in 50% and 90%, respectively, were measured and compared to those of the intact cispentacin. The concentration values presented in Table 1 and Table 2 are expressed in mM units to allow the comparison of the compounds’ effectiveness at the molecular level. For data expressed in μg mL^−1 units, such comparison is not possible, since the molecular masses of conjugates (≈1755–2114 D range) are 14–16-fold higher than that of cispentacin (128.3 D).
(§2) Susceptibility testing was performed in two growth media: (a) RPMI-1640 w/o sodium bicarbonate, with L-glutamine + 2% glucose + 3.45% MOPS, pH adjusted to 7.0; (b) YNB-AS—Yeast Nitrogen Base w/o amino acids (contains ammonium sulfate 5 g L^−1) + 2% glucose. The in vitro growth inhibitory activity of antifungals was quantified by determination of MIC50 and MIC90 values by the serial two-fold dilution method, using the 96-well microtiter plates. Serial dilutions of cispentacin and its conjugates were prepared in the 4–0.015 mM range.
(§3) Conditions of the RPMI-1640-based assay were the same as outlined in the CLSI recommendations except for the end-point readout that was done by spectrophotometric determination of cell density at 660 nm. Turbidity in individual wells was measured with a microplate reader (Victor^3; Perkin Elmer). The 96-well microtiter plates were also used for the determination of in vitro growth inhibitory activity in YNB-AS medium. Individual wells were inoculated with 5 × 10^3 Candida cells mL^−1 from the overnight culture in YPD medium. The plates were incubated at 37 °C for 24 h, and then, turbidity was measured with a microplate reader at 660 nm, as described above for the RPMI-1640-based assay.
(§4) Values of MIC50 and MIC90 were read from the graphs of A660 vs. drug concentration and corresponded to the interpolated values of drug concentration at which A660 was 50% or 10% of that measured for the drug-free control.

pig liver esterase = assay: HPLC-MS analysis of conjugate cleavage, model system with pig liver esterase; assay type: in vitro ADME; settings: pig liver esterase 5 mg mL^−1; conjugate 150 µM; 30 °C; 0, 30, 120 min
Description: (§5) Conjugates 24a–d, containing the TML system, were tested for susceptibility to enzymatic cleavage in the model system with pig liver esterase and in cell-free extract prepared from C. albicans cells. Conjugate 35 containing the o-dithiobenzylcarbamoyl linker was tested in the model system with glutathione and in C. albicans cell-free extract.
(§6) Analysis of cleavage of the conjugates was performed in two experimental systems: (A) model system, in the presence of pig liver esterase or glutathione, reduced; (B) in C. albicans cell-free extract.
(§7) Mixtures containing a given conjugate at the initial concentration of 150 µM and pig liver esterase, 5 mg mL^−1 or 10 mM glutathione, reduced, in a total volume of 200 μL were incubated at 30 °C. Samples of 50 μL were collected at zero time, after 30 min, and after 120 min and subjected to HPLC-MS analysis.
(§8) The HPLC-MS system consisted of a liquid chromatograph, a degasser, a binary pomp, an auto-sampler, and a column oven, which was combined with an MS detector with an electrospray source (AJS ESI) and quadrupole analyzer (1260 Infinity II and 6470 Triple Quad LC/MS, Agilent Technologies, Waldbronn, Germany). The ChemStation software was used to control the LC-MS system and for data processing.
(§9) Chromatographic separations were performed on an Eclipse XDB-C18 column (150 mm × 4.6 mm, 5 μm). For the separation, a gradient of mobile phase A (H2O + 0.01% HCOOH) and mobile phase B (100% methanol) was used. The gradient profile was set as follows: 0 min—95% effluent A, 8 min—70% effluent A, 11 min—50% effluent A, 12 min—95% effluent A, 17 min—95% effluent A. The flow rate was 1 mL min^−1, the column temperature was 25 °C, and the injection volume was 20 μL.
(§10) The electrospray source operated in a negative mode. The data were collected in a MS scanning mode (MS2 SCAN) with the range 150–700 (m/z).

[1] = system: C. albicans cell-free extract; assay type: in vitro ADME, Candida albicans; settings: conjugate 150 µM, 30 °C, 0, 30, 120 min
Description: as §5
C. albicans cells were harvested from the culture in YPD medium in the logarithmic phase of growth and washed with PBS, pH 7.4. Then, cells were suspended in a minimal amount of PBS to an optical density OD660 ≈ 1.5. A sample of 1.5 mL of the cell suspension was put into the Lysing Matrix D, 2 mL tubes containing 1.4 mm ceramic spheres (MP Biomedicals). The tubes were vortexed 5 times for 2 min intervals, with 2 min breaks for cooling in the ice/water bath. Finally, the mixtures were centrifuged (10,000× g, 4 °C, 20 min), and the supernatant was pushed through the syringe filter, 0.22 μm pore size, to remove unbroken cells. The thus-obtained cell-free extract was kept at 4 °C and used no later than 5 h after preparation.
as §6
A given conjugate was dissolved in 4 mL of C. albicans cell-free extract to the initial concentration of 150 µM. Mixtures were incubated at 30 °C. Samples of 1 mL were collected at zero time, after 30 min, and after 120 min. The collected samples were immediately de-proteinized by centrifugation (4 °C, 5000× g, 10 min) in Amicon® Ultra-4 Centrifugal Filter Units, 3 kDa cutoff limit. Samples of 50 μL were collected from the filtrates and subjected to HPLC-MS analysis.
as §8, §9, §10

C. albicans ATCC 10231 [2] = assay: Antifungal in vitro activity, serial two-fold dilution, RPMI-1640 medium; assay type: cell-based; settings: Candida albicans, ATCC10231, >>1 = no growth inhibition at 1 mM
Description: as §1, with “For data expressed in μg mL^−1 units, such comparison is not possible, since the molecular masses of conjugates (≈1755–2114 D range) are 14–16-fold higher than that of cispentacin (128.3 D).” left out
as §2, with “Serial dilutions of cispentacin and its conjugates were prepared in the 4–0.015 mM range.” left out
(§11) Conditions of the RPMI-1640-based assay were the same as outlined in the CLSI recommendations except for the end-point readout that was done by spectrophotometric determination of cell density at 660 nm. Turbidity in individual wells was measured with a microplate reader (Victor^3; Perkin Elmer). […]

C. albicans B3 [3] = assay: as above; assay type: cell-based; settings: Candida albicans, C. albicans B3 (fluconazole-sensitive isolate)
Description: as §1
(§12) The reference strains used in this study were Candida albicans ATCC 10231, Candida glabrata DSM 11226, and Candida krusei DSM 6128. C. albicans B3, B4, Gu4, and Gu5 clinical isolates were kindly provided by Joachim Morschhäuser, Würzburg, Germany. Gu4 and B3 are fluconazole-sensitive isolates obtained from early infection episodes, while Gu5 and B4 are the corresponding fluconazole-resistant isolates obtained from later episodes in the same patients treated with fluconazole. Strains were grown at 30 °C in YPD medium (2% glucose, 1% yeast extract, and 1% Bacto-Peptone) and stored on YPD agar plates containing 2% agar.
as §2, §3, §4

C. albicans B4 [4] = assay: as above; assay type: cell-based; settings: Candida albicans, C. albicans B4 (fluconazole-resistant isolate)
Description: as §1, §12, §2, §3, §4

C. albicans Gu4 [5] = assay: as above; assay type: cell-based; settings: Candida albicans, C. albicans Gu4 (fluconazole-sensitive isolate)
Description: as §1, §12, §2, §3, §4

C. albicans Gu5 [6] = assay: as above; assay type: cell-based; settings: Candida albicans, C. albicans Gu5 (fluconazole-resistant isolate)
Description: as §1, §12, §2, §3, §4

[7] = system: Candida glabrata DSM 11226; assay: as above; assay type: cell-based; settings: Nakaseomyces glabratus, DSM11226, C. glabrata
Description: as §1, §12, §2, §3, §4

Candida krusei DSM 6128 [8] = assay: as above; assay type: cell-based; settings: Pichia kudriavzevii, DSM6128, C. krusei
Description: as §1, §12, §2, §3, §4

C. albicans ATCC 10231 [9] = assay: Antifungal in vitro activity, serial two-fold dilution, YNB-AS medium; assay type: cell-based; settings: Candida albicans, ATCC10231, >>1 = no growth inhibition at 1 mM
Description: as §1, with “For data expressed in μg mL^−1 units, such comparison is not possible, since the molecular masses of conjugates (≈1755–2114 D range) are 14–16-fold higher than that of cispentacin (128.3 D).” left out
as §2, with “Serial dilutions of cispentacin and its conjugates were prepared in the 4–0.015 mM range.” left out
as §11

C. albicans B3 [10] = assay: as above; assay type: cell-based; settings: Candida albicans, C. albicans B3 (fluconazole-sensitive isolate)
Description: as §1, §12, §2, §3, §4

C. albicans B4 [11] = assay: as above; assay type: cell-based; settings: Candida albicans, C. albicans B4 (fluconazole-resistant isolate)
Description: as §1, §12, §2, §3, §4

C. albicans Gu4 [12] = assay: as above; assay type: cell-based; settings: Candida albicans, C. albicans Gu4 (fluconazole-sensitive isolate)
Description: as §1, §12, §2, §3, §4

C. albicans Gu5 [13] = assay: as above; assay type: cell-based; settings: Candida albicans, C. albicans Gu5 (fluconazole-resistant isolate)
Description: as §1, §12, §2, §3, §4

[14] = system: Candida glabrata DSM 11226; assay: as above; assay type: cell-based; settings: Nakaseomyces glabratus, DSM11226, C. glabrata
Description: as §1, §12, §2, §3, §4

Candida krusei DSM 6128 [15] = assay: as above; assay type: cell-based; settings: Pichia kudriavzevii, DSM6128, C. krusei
Description: as §1, §12, §2, §3, §4

[16] = HPLC-MS analysis of conjugate cleavage, model system with glutathione; assay type: in vitro ADME; settings: reduced, conjugate 150 µM, 30 °C, 0, 30, 120 min
Description: as §5, §6, §7, §8
Chromatographic separations were performed on an Eclipse XDB-C18 column (150 mm × 4.6 mm, 5 μm). […]

[17] = both growth media (RPMI-1640 and YNB-AS)

Cc1cc(C)c(C(C)(C)CC(=O)N[C@H]2CCC[C@H]2C(=O)O)c(OC(=O)CCCCCCC(=O)N(CCCCNC(=O)CC[C@@H](C)[C@H]2CC[C@H]3[C@@H]4[C@H](OS(=O)(=O)O)C[C@@H]5C[C@H](OS(=O)(=O)O)CC[C@]5(C)[C@H]4C[C@H](OS(=O)(=O)O)[C@]23C)CCCNC(=O)CC[C@@H](C)[C@H]2CC[C@H]3[C@@H]4[C@H](OS(=O)(=O)O)C[C@@H]5C[C@H](OS(=O)(=O)O)CC[C@]5(C)[C@H]4C[C@H](OS(=O)(=O)O)[C@]23C)c1 [24d]
antifungal activity (Candida spp.; RPMI-1640 medium): devoid of antifungal activity
antifungal activity (Candida spp.; [17]): inactive in both media
antifungal activity (Candida spp.; both growth media (RPMI-1640 and YNB-AS), listed as 26d): not active as an antifungal
cleavage / release of cispentacin (HPLC-MS) (pig liver esterase): Presence of the released cispentacin was confirmed
cleavage / release of cispentacin or its derivative (HPLC-MS) [1]: the product of a possible cleavage, with RT similar to that of cispentacin but with 17 D higher MW, was formed
cleavage / release of cispentacin or its derivative (HPLC-MS) ([1]; listed as 26d): found cleavable in the cell-free extract

N[C@H]1CCC[C@H]1C(=O)O [CisP, cispentacin]
MIC50 (C. albicans ATCC 10231 [2]): 80 µM (≈ 10.3 µg/mL)
MIC90 (C. albicans ATCC 10231 [2]): 340 µM (≈ 43.9 µg/mL)
MIC50 (C. albicans B3 [3]): 210 µM (≈ 27.1 µg/mL)
MIC90 (C. albicans B3 [3]): 360 µM (≈ 46.5 µg/mL)
MIC50 (C. albicans B4 [4]): 340 µM (≈ 43.9 µg/mL)
MIC90 (C. albicans B4 [4]): 580 µM (≈ 74.9 µg/mL)
MIC50 (C. albicans Gu4 [5]): 260 µM (≈ 33.6 µg/mL)
MIC90 (C. albicans Gu4 [5]): 420 µM (≈ 54.2 µg/mL)
MIC50 (C. albicans Gu5 [6]): 410 µM (≈ 53 µg/mL)
MIC90 (C. albicans Gu5 [6]): 640 µM (≈ 82.7 µg/mL)
MIC50 [7]: 510 µM (≈ 65.9 µg/mL)
MIC90 [7]: > 1000 µM
MIC50 (Candida krusei DSM 6128 [8]): 280 µM (≈ 36.2 µg/mL)
MIC90 (Candida krusei DSM 6128 [8]): 570 µM (≈ 73.6 µg/mL)
MIC50 (C. albicans ATCC 10231 [9]): 20 µM (≈ 2.58 µg/mL)
MIC90 (C. albicans ATCC 10231 [9]): 100 µM (≈ 12.9 µg/mL)
MIC50 (C. albicans B3 [10]): 110 µM (≈ 14.2 µg/mL)
MIC90 (C. albicans B3 [10]): 150 µM (≈ 19.4 µg/mL)
MIC50 (C. albicans B4 [11]): 170 µM (≈ 22 µg/mL)
MIC90 (C. albicans B4 [11]): 280 µM (≈ 36.2 µg/mL)
MIC50 (C. albicans Gu4 [12]): 150 µM (≈ 19.4 µg/mL)
MIC90 (C. albicans Gu4 [12]): 180 µM (≈ 23.2 µg/mL)
MIC50 (C. albicans Gu5 [13]): 270 µM (≈ 34.9 µg/mL)
MIC90 (C. albicans Gu5 [13]): 390 µM (≈ 50.4 µg/mL)
MIC50 [14]: 100 µM (≈ 12.9 µg/mL)
MIC90 [14]: 500 µM (≈ 64.6 µg/mL)
MIC50 (Candida krusei DSM 6128 [15]): 90 µM (≈ 11.6 µg/mL)
MIC90 (Candida krusei DSM 6128 [15]): 150 µM (≈ 19.4 µg/mL)

C[C@H](CCC(=O)NCCCCN(CCCNC(=O)CC[C@@H](C)[C@H]1CC[C@H]2[C@@H]3[C@H](OS(=O)(=O)O)C[C@@H]4C[C@H](OS(=O)(=O)O)CC[C@]4(C)[C@H]3C[C@H](OS(=O)(=O)O)[C@]12C)C(=O)CCSSc1ccccc1COC(=O)N[C@H]1CCC[C@H]1C(=O)O)[C@H]1CC[C@H]2[C@@H]3[C@H](OS(=O)(=O)O)C[C@@H]4C[C@H](OS(=O)(=O)O)CC[C@]4(C)[C@H]3C[C@H](OS(=O)(=O)O)[C@]12C [compound 35]
antifungal activity (Candida spp.; RPMI-1640 medium): devoid of antifungal activity
antifungal activity (Candida spp.; [17]): inactive in both media
cleavage / release of cispentacin (HPLC-MS) [16]: found in the chromatogram of post-reaction mixture; also recorded: cleavage was observed
cleavage / release of cispentacin or its derivative (HPLC-MS) [1]: Neither cispentacin nor the m/z 145.1/145.2 compound was found
